Measured values reported in patent US10604554B2, “Double-acylated GLP-1 derivatives” (Novo Nordisk A/S, priority 2012, dated 2020).

Molecular target: T1, human GLP-1 receptor (Homo sapiens, UniProt P43220)
T1 construct: expressed in transfected cells; host or cells: BHK cells, clone FCW467-12A/KZ10-1 (parent line BHKTS13), further transfected with CRE luciferase
Test: In vitro potency (AlphaScreen cAMP, membranes)
Type: biochemical
Experimental: The purpose of this example is to test the activity, or potency, of the GLP-1 derivatives in vitro.
Purified plasma membranes from a stable transfected cell line, BHK467-12A (tk-ts13), expressing the human GLP-1 receptor were stimulated with the GLP-1 analogue or derivative in question, and the potency of cAMP production was measured using the AlphaScreen™ cAMP Assay Kit from Perkin Elmer Life Sciences. The basic principle of the AlphaScreen Assay is a competition between endogenous cAMP and exogenously added biotin-cAMP. The capture of cAMP is achieved by using a specific antibody conjugated to acceptor beads.
A stable transfected cell line and a high expressing clone were selected for screening. The cells were grown at 5% CO2 in DMEM, 5% FCS, 1% Pen/Strep (Penicillin/Streptomycin) and 0.5 mg/ml of the selection marker G418.
Cells at approximately 80% confluence were washed 2× with PBS and harvested with Versene (aqueous solution of the tetrasodium salt of ethylenediaminetetraacetic acid), centrifuged 5 min at 1000 rpm and the supernatant removed. The additional steps were all performed on ice. The cell pellet was homogenised by the Ultrathurax for 20-30 s in 10 ml of Buffer 1 (20 mM Na-HEPES, 10 mM EDTA, pH=7.4), centrifuged 15 min at 20,000 rpm and the pellet resuspended in 10 ml of Buffer 2 (20 mM Na-HEPES, 0.1 mM EDTA, pH=7.4). The suspension was homogenised for 20-30 s and centrifuged 15 min at 20,000 rpm. Suspension in Buffer 2, homogenisation and centrifugation was repeated once and the membranes were resuspended in Buffer 2. The protein concentration was determined and the membranes stored at −80° C. until use.
The assay was performed in flat-bottom 96-well plates (Costar cat. no:3693). The final volume per well was 50 μl.
AlphaScreen cAMP Assay Kit from Perkin Elmer Life Sciences (cat. No: 6760625M); containing Anti-cAMP Acceptor beads (10 U/μl), Streptavidin Donor beads (10 U/μl) and Biotinylated-cAMP (133 U/μl).
AlphaScreen Buffer, pH=7.4: 50 mM TRIS-HCl (Sigma, cat.no: T3253); 5 mM HEPES (Sigma, cat.no: H3375); 10 mM MgCl2, 6H2O (Merck, cat.no: 5833); 150 mM NaCl (Sigma, cat.no: S9625); 0.01% Tween (Merck, cat.no: 822184). The following was added to the AlphaScreen Buffer prior to use (final concentrations indicated): BSA (Sigma, cat. no. A7906): 0.1%; IBMX (Sigma, cat. no. 15879): 0.5 mM; ATP (Sigma, cat. no. A7699): 1 mM; GTP (Sigma, cat. no. G8877): 1 uM.
cAMP standard (dilution factor in assay=5): cAMP Solution: 5 μL of a 5 mM cAMP-stock+495 μL AlphaScreen Buffer.
Membranes were prepared from hGLP-1/BHK 467-12A cells with a concentration of 6 μg/well corresponding to 0.6 mg/ml (the amount of membranes used pr. well may vary)
“No membranes”: Acceptor Beads (15 μg/ml final) in AlphaScreen buffer
“6 μg/well membranes”: membranes+Acceptor Beads (15 μg/ml final) in AlphaScreen buffer
An aliquot (10 μl) of “No membranes” was added to the cAMP standard (per well in duplicate wells) and the positive and negative controls
An aliquot (10 μl) of “6 μg/well membranes” was added to GLP-1 and analogues (per well in duplicate or triplicate wells)
Pos. Control: 10 μl “no membranes”+10 μl AlphaScreen Buffer
Neg. Control: 10 μl “no membranes”+10 μl cAMP Stock Solution (50 μM)
As the beads are sensitive to direct light, any handling was in the dark (as dark as possible), or in green light. All dilutions were made on ice.
1. Make the AlphaScreen Buffer.
2. Dissolve and dilute the GLP-1/Analogues/cAMP standard in AlphaScreen Buffer.
3. Make the Donor Beads Solution by mixing streptavidin donor beads (2 units/well) and biotinylated cAMP (1.2 units/well) and incubate 20-30 min in the dark at room temperature
4. Add the cAMP/GLP-1/Analogues to the plate: 10 μl per well.
5. Prepare membrane/Acceptor Beads solution and add this to the plates: 10 μl per well.
6. Add the Donor Beads: 30 μl per well.
7. Wrap the plate in aluminum foil and incubate on the shaker for 3 hours (very slowly) at RT.

T1 sequence (P43220 24-463): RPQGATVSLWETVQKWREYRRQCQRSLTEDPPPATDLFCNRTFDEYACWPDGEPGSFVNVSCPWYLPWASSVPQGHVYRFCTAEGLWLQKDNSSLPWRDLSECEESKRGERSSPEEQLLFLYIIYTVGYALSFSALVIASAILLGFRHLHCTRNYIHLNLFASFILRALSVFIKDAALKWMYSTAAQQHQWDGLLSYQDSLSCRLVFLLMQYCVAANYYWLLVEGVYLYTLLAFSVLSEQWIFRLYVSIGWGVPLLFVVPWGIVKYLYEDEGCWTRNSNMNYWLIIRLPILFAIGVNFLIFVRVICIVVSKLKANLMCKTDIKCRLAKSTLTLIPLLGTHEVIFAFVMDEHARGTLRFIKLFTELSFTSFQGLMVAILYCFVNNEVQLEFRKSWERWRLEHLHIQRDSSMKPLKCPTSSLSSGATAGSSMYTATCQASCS

| SMILES | EC50 [nM] |
| --- | --- |
| CC[C@H](C)[C@H](NC(=O)[C@H](Cc1ccccc1)NC(=O)[C@H](CCC(=O)O)NC(=O)[C@H](CCCCNC(=O)[C@@H](N)CCCCNC(=O)COCCOCCNC(=O)COCCOCCNC(=O)CC[C@H](NC(=O)CCCCCCCCCCCOc1ccc(C(=O)O)cc1)C(=O)O)NC(=O)[C@H](C)NC(=O)[C@H](C)NC(=O)[C@H](CCC(N)=O)NC(=O)CNC(=O)[C@H](CCC(=O)O)NC(=O)[C@H](CC(C)C)NC(=O)[C@H](Cc1ccc(O)cc1)NC(=O)[C@H](CO)NC(=O)[C@H](CO)NC(=O)[C@@H](NC(=O)[C@H](CC(=O)O)NC(=O)[C@H](CO)NC(=O)[C@@H](NC(=O)[C@H](Cc1ccccc1)NC(=O)[C@@H](NC(=O)CNC(=O)[C@H](CCC(=O)O)NC(=O)C(C)(C)NC(=O)[C@@H](N)Cc1c[nH]cn1)[C@@H](C)O)[C@@H](C)O)C(C)C)C(=O)N[C@@H](C)C(=O)N[C@@H](Cc1c[nH]c2ccccc12)C(=O)N[C@@H](CC(C)C)C(=O)N[C@H](C(=O)N[C@@H](CCCNC(=N)N)C(=O)NCC(=O)N[C@@H](CCCNC(=N)N)C(=O)N[C@@H](CCCCNC(=O)[C@@H](N)CCCCNC(=O)COCCOCCNC(=O)COCCOCCNC(=O)CC[C@H](NC(=O)CCCCCCCCCCCOc1ccc(C(=O)O)cc1)C(=O)O)C(=O)O)C(C)C [Example 14, N^ε26-[(2S)-2-amino-6-[[2-[2-[2-[[2-[2-[2-[[(4S)-4-carboxy-4-[12-(4-carboxyphenoxy)dodecanoylamino]butanoyl]amino]ethoxy]ethoxy]acetyl]amino]ethoxy]ethoxy]acetyl]amino]hexanoyl], N^ε37-[(2S)-2-amino-6-[[2-[2-[2-[[2-[2-[2-[[(4S)-4-carboxy-4-[12-(4-carboxyphenoxy)dodecanoylamino]butanoyl]amino]ethoxy]ethoxy]acetyl]amino]ethoxy]ethoxy]acetyl]amino]hexanoyl]-[Aib^8,Arg^34, Lys^37]-GLP-1-(7-37)-peptide] | 0.28 |
| CC[C@H](C)[C@H](NC(=O)[C@H](Cc1ccccc1)NC(=O)[C@H](CCC(=O)O)NC(=O)[C@H](CCCCNC(=O)[C@@H](N)CCCCNC(=O)COCCOCCNC(=O)CC[C@H](NC(=O)CC[C@H](NC(=O)CCCCCCCCCCCOc1ccc(C(=O)O)cc1)C(=O)O)C(=O)O)NC(=O)[C@H](C)NC(=O)[C@H](C)NC(=O)[C@H](CCC(N)=O)NC(=O)CNC(=O)[C@H](CCC(=O)O)NC(=O)[C@H](CC(C)C)NC(=O)[C@H](Cc1ccc(O)cc1)NC(=O)[C@H](CO)NC(=O)[C@H](CO)NC(=O)[C@@H](NC(=O)[C@H](CC(=O)O)NC(=O)[C@H](CO)NC(=O)[C@@H](NC(=O)[C@H](Cc1ccccc1)NC(=O)[C@@H](NC(=O)CNC(=O)[C@H](CCC(=O)O)NC(=O)C(C)(C)NC(=O)[C@@H](N)Cc1c[nH]cn1)[C@@H](C)O)[C@@H](C)O)C(C)C)C(=O)N[C@@H](C)C(=O)N[C@@H](Cc1c[nH]c2ccccc12)C(=O)N[C@@H](CC(C)C)C(=O)N[C@H](C(=O)N[C@@H](CCCNC(=N)N)C(=O)NCC(=O)N[C@@H](CCCNC(=N)N)C(=O)N[C@@H](CCCCNC(=O)[C@@H](N)CCCCNC(=O)COCCOCCNC(=O)CC[C@H](NC(=O)CC[C@H](NC(=O)CCCCCCCCCCCOc1ccc(C(=O)O)cc1)C(=O)O)C(=O)O)C(=O)O)C(C)C [Example 15, N^ε26-[(2S)-2-amino-6-[[2-[2-[2-[[(4S)-4-carboxy-4-[[(4S)-4-carboxy-4-[12-(4-carboxyphenoxy)dodecanoylamino]butanoyl]amino]butanoyl]amino]ethoxy]ethoxy]acetyl]amino]hexanoyl], N^ε37-[(2S)-2-amino-6-[[2-[2-[2-[[(4S)-4-carboxy-4-[[(4S)-4-carboxy-4-[12-(4-carboxyphenoxy)dodecanoylamino]butanoyl]amino]butanoyl]amino]ethoxy]ethoxy]acetyl]amino]hexanoyl]-[Aib^8,Arg^34,Lys^37]-GLP-1-(7-37)-peptide] | 0.155 |
| CC[C@H](C)[C@H](NC(=O)[C@H](Cc1ccccc1)NC(=O)[C@H](CCC(=O)O)NC(=O)[C@H](CCCCNC(=O)[C@@H](N)CCCCNC(=O)[C@@H](N)CCCCNC(=O)CC[C@H](NC(=O)CC[C@H](NC(=O)CCCCCCCCCCCOc1ccc(C(=O)O)cc1)C(=O)O)C(=O)O)NC(=O)[C@H](C)NC(=O)[C@H](C)NC(=O)[C@H](CCC(N)=O)NC(=O)CNC(=O)[C@H](CCC(=O)O)NC(=O)[C@H](CC(C)C)NC(=O)[C@H](Cc1ccc(O)cc1)NC(=O)[C@H](CO)NC(=O)[C@H](CO)NC(=O)[C@@H](NC(=O)[C@H](CC(=O)O)NC(=O)[C@H](CO)NC(=O)[C@@H](NC(=O)[C@H](Cc1ccccc1)NC(=O)[C@@H](NC(=O)CNC(=O)[C@H](CCC(=O)O)NC(=O)C(C)(C)NC(=O)[C@@H](N)Cc1c[nH]cn1)[C@@H](C)O)[C@@H](C)O)C(C)C)C(=O)N[C@@H](C)C(=O)N[C@@H](Cc1c[nH]c2ccccc12)C(=O)N[C@@H](CC(C)C)C(=O)N[C@H](C(=O)N[C@@H](CCCNC(=N)N)C(=O)NCC(=O)N[C@@H](CCCNC(=N)N)C(=O)N[C@@H](CCCCNC(=O)[C@@H](N)CCCCNC(=O)[C@@H](N)CCCCNC(=O)CC[C@H](NC(=O)CC[C@H](NC(=O)CCCCCCCCCCCOc1ccc(C(=O)O)cc1)C(=O)O)C(=O)O)C(=O)O)C(C)C [Example 16, N^ε26-[(2S)-2-amino-6-[[(2S)-2-amino-6-[[(4S)-4-carboxy-4-[[(4S)-4-carboxy-4-[12-(4-carboxyphenoxy)dodecanoylamino]butanoyl]amino]butanoyl]amino]hexanoyl]amino]hexanoyl], N^ε37-[(2S)-2-amino-6-[[(2S)-2-amino-6-[[(4S)-4-carboxy-4-[[(4S)-4-carboxy-4-[12-(4-carboxyphenoxy)dodecanoylamino]butanoyl]amino]butanoyl]amino]hexanoyl]amino]hexanoyl]-[Aib^8,Arg^34,Lys^37]-GLP-1-(7-37)-peptide] | 0.154 |
